The target in assay [1] is Human ACC2 (Homo sapiens, UniProt O00763). In words: In vitro ACC2 inhibition assay (ADP-Glo), human ACC2. Conditions: 5 nM ACC2, 20 μM ATP, 20 μM acetyl-CoA. The format is biochemical.
The subject of assay [2] is C. albicans ATCC 90028. Description: Anti-Fungal Activity Assay (broth microtiter MIC), C. albicans. The format is cell-based, Candida albicans. Conditions: Candida albicans, ATCC90028, 48 h, 3 replicates; MIC recorded at 48 h; read-out: MIC C. albicans ATCC 90028. The method in brief:
(§1)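 Plate from frozen stock onto Sabouraud dextrose agar, 35° C overnight; swab colonies into RPMI 1640+MOPS; set density via standard curves; run CLSI M27-A3 broth microdilution; score MIC visually versus growth control at 48 h, soraphen additionally at 24 h.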

The test system of assay [3] is C. krusei ATCC 6258. Description: Anti-Fungal Activity Assay (broth microtiter MIC), C. krusei. The class given is cell-based, Candida krusei. The settings on record: Pichia kudriavzevii, ATCC6258, 48 h, 3 replicates; MIC recorded at 48 h; read-out: MIC C. krusei ATCC 6258. A digest of the protocol: as §1
In assay [4] the test system is C. parapsilosis ATCC 22019. In words: Anti-Fungal Activity Assay (broth microtiter MIC), C. parapsilosis. The format is cell-based, Candida parapsilosis. Conditions: Lodderomyces parapsilosis, ATCC22019, 48 h, 3 replicates; MIC recorded at 48 h; read-out: MIC C. parapsilosis ATCC 22019. A digest of the protocol:
as §1

Assay [5] concerns the target Fungal ACC2 (UniProt Q00955). Conditions: read-out: Fungal ACC2 (IC50, in vitro ACC2 inhibition).

pIC50: −log10 of the molar value. Values after ≈ are worked out from the molar mass of the structure shown.

Sequence of Fungal ACC2 (Q00955 whole entry): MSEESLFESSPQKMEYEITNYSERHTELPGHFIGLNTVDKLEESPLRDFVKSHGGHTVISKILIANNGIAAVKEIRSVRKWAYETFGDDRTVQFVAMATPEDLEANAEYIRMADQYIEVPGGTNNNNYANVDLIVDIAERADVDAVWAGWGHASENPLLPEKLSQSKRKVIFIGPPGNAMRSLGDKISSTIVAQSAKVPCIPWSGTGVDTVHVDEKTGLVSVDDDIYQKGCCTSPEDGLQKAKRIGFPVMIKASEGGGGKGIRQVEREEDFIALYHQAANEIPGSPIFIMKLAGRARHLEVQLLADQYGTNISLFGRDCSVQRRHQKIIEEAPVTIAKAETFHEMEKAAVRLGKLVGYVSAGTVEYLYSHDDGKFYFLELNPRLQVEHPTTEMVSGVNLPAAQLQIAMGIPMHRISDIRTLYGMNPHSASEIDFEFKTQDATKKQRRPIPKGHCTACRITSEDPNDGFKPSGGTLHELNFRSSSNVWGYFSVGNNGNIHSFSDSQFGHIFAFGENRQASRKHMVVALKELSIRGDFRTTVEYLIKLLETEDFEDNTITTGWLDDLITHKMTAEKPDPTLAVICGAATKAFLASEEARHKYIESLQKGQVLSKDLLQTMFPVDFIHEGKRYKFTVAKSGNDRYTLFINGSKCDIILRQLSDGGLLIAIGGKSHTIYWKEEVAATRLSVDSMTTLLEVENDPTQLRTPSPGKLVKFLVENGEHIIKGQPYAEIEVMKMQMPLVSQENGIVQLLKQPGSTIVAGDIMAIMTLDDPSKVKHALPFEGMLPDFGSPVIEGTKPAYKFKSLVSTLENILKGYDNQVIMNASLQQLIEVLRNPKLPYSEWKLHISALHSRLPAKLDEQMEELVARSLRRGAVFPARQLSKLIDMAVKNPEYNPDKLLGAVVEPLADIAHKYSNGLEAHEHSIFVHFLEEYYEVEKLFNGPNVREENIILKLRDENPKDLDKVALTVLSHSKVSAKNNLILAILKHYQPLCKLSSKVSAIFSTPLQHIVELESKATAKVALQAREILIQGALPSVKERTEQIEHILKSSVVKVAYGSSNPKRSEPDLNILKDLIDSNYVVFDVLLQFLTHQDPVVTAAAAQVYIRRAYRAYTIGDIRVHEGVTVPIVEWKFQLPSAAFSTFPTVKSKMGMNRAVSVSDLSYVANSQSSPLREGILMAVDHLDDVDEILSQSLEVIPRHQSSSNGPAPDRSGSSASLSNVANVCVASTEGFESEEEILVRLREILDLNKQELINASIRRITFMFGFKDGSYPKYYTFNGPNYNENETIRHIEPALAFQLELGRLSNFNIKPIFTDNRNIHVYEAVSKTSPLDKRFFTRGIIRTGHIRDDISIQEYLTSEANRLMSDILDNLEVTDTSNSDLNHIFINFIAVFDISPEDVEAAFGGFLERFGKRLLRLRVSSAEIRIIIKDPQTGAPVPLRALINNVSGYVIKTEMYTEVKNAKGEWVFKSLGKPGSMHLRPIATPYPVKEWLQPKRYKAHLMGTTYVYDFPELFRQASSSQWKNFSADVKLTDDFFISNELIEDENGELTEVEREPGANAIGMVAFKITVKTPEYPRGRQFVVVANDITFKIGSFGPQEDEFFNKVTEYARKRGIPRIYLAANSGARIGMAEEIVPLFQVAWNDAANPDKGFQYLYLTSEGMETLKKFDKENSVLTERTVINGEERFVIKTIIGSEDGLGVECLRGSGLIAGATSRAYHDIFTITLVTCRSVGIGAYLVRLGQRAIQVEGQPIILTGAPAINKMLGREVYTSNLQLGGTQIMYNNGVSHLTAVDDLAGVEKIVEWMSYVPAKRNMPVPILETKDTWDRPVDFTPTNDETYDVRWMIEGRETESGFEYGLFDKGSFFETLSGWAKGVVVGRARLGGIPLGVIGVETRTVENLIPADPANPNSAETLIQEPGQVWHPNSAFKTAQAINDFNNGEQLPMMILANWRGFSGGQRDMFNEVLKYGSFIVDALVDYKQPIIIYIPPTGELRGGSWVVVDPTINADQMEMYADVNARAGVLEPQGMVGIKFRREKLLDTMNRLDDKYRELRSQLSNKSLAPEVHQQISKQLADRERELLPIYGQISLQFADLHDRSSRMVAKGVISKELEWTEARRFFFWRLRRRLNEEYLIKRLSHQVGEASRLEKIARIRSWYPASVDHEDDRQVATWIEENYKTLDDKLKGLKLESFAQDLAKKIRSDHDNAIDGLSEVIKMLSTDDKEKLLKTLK
Sequence of Human ACC2 (O00763 whole entry): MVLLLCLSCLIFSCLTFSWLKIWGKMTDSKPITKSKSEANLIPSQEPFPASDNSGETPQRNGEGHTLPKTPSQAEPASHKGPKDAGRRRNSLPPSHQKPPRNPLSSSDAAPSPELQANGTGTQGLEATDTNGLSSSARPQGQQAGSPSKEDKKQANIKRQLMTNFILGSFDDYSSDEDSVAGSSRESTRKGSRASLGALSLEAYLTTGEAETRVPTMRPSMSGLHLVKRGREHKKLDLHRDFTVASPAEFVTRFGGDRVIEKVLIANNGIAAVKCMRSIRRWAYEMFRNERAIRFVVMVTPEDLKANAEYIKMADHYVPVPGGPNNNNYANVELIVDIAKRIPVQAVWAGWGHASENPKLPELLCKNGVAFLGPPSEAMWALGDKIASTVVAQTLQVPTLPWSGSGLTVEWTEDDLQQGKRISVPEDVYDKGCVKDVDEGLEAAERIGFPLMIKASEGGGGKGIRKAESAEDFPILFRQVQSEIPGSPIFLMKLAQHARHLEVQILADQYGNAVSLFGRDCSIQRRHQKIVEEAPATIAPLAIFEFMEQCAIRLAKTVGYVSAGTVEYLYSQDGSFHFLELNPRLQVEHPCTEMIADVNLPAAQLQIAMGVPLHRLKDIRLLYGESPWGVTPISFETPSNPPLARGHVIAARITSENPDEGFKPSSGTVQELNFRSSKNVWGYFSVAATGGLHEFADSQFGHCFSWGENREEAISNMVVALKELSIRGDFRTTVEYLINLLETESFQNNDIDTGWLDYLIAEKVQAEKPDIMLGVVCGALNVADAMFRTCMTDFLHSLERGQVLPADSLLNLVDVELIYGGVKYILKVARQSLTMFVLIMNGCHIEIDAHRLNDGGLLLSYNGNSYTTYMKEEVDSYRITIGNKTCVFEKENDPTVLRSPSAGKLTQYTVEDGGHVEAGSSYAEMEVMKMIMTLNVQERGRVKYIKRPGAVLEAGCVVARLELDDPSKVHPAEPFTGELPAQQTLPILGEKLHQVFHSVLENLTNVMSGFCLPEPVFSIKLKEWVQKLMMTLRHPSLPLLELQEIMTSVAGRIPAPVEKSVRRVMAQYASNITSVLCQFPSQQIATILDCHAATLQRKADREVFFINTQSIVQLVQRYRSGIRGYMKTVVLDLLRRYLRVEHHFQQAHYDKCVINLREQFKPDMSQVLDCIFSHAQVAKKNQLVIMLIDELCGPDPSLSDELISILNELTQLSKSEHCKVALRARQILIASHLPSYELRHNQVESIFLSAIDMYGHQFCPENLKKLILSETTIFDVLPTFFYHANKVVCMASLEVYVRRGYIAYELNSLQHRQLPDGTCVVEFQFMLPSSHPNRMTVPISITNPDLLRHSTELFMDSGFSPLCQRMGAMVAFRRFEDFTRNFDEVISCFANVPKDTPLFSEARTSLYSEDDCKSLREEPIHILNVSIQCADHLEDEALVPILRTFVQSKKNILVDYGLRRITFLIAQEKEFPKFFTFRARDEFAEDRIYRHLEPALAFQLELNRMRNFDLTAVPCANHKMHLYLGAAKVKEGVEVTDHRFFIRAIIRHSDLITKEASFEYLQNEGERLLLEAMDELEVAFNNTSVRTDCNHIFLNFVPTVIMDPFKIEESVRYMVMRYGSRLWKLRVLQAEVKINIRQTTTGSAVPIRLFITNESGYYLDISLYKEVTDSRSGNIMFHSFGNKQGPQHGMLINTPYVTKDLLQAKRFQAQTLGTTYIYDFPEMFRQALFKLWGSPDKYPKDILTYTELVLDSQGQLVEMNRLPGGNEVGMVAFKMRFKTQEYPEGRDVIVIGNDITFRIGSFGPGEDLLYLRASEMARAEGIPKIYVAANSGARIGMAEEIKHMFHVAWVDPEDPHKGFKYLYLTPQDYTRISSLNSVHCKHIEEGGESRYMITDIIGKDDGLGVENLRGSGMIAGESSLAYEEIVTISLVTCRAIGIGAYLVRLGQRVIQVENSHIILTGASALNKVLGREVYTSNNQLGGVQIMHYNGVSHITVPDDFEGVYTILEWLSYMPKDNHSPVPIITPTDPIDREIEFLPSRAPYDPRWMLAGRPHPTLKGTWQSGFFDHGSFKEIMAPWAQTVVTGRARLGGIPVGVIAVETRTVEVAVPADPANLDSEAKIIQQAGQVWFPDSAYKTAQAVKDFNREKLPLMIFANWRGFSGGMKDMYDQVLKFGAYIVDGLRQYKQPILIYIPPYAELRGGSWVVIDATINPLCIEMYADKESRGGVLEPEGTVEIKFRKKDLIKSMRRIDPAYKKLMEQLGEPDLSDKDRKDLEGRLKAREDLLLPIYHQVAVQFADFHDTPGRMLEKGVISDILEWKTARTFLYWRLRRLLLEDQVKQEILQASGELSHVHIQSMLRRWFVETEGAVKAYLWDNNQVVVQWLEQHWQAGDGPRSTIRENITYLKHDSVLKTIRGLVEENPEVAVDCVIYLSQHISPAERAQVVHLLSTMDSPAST

On to `COc1ccc(F)cc1[C@H](Cn1c(=O)n([C@H]2CNC(=O)C2)c(=O)c2c(C)c(-n3nccn3)sc21)OCCO` [Compound I-89, 1-((R)-2-(5-fluoro-2-methoxyphenyl)-2-(2-hydroxy-ethoxy)ethyl)-5-methyl-3-((R)-5-oxopyrrolidin-3-yl)-6-(2H-1,2,3-triazol-2-yl)thieno[2,3-d]pyrimidine-2,4(1H, 3H)-dione], for which the results for the pIC50 in assay [1] and in assay [5] were 8.00 to 8.70 and 8.70 to 9.15, respectively. Moreover, the minimal inhibitory concentration (MIC) in assay [2], in assay [3] and in assay [4] was 2.1 to 4 µg/mL (≈ 3.86 to 7.35 µM) throughout.

For `COc1ccc(F)cc1[C@H](Cn1c(=O)n([C@@H]2CNC(=O)C2)c(=O)c2c(C)c(-n3nccn3)sc21)OCCO` [Compound I-91, 1-((R)-2-(5-fluoro-2-methoxyphenyl)-2-(2-hydroxy-ethoxy)ethyl)-5-methyl-3-((S)-5-oxopyrrolidin-3-yl)-6-(2H-1,2,3-triazol-2-yl)thieno[2,3-d]pyrimidine-2,4(1H,3H)-dione], the negative-log IC50 (pIC50) in assay [1] was 8.00 to 8.70; in assay [5] it was 8.70 to 9.15. For the same compound, the MIC in assay [2], in assay [3] and in assay [4] was 2.1 to 4 µg/mL (≈ 3.86 to 7.35 µM) in each case.

Take `COCCO[C@@H](Cn1c(=O)n([C@H]2CC(=O)N(C)C2)c(=O)c2c(C)c(-n3nccn3)sc21)c1cc(F)ccc1OC` [Compound I-94, 1-((R)-2-(5-fluoro-2-methoxyphenyl)-2-(2-methoxy-ethoxy)ethyl)-5-methyl-3-((S)-1-methyl-5-oxopyrrolidin-3-yl)-6-(2H-1,2,3-triazol-2-yl)thieno[2,3-d]pyrimidine-2,4(1H, 3H)-dione]: the values for the pIC50 in assay [1] and in assay [5] were 8.00 to 8.70 and 8.70 to 9.15, respectively. The minimum inhibitory concentration (MIC) in assay [2], in assay [3] and in assay [4] was 2.1 to 4 µg/mL (≈ 3.67 to 6.99 µM) throughout.

Consider `COCCO[C@@H](Cn1c(=O)n(CCN2CCCCC2=O)c(=O)c2c(C)c(-n3nccn3)sc21)c1cc(F)ccc1OC` [Compound I-98, (R)-1-(2-(S-fluoro-2-methoxyphenyl)-2-(2-methoxy-ethoxy)ethyl)-5-methyl-3-(2-(2-oxopiperidin-1-yl)ethyl)-6-(2H-1,2,3-triazol-2-yl)thieno[2,3-d]pyrimidine-2,4(1H3H)-dione], for which the results for the pIC50 in assay [1] and in assay [5] were 7.00 to 8.00 and 8.00 to 8.70, respectively. Moreover, the minimal inhibitory concentration (MIC) in assay [2], in assay [3] and in assay [4] was 2.1 to 4 µg/mL (≈ 3.5 to 6.66 µM) each time.

Turning to `COc1ccccc1[C@@H](O)Cn1c(=O)n([C@@H]2CCN(C)C2=O)c(=O)c2c(C)c(-n3nccn3)sc21` [Compound I-169, 1-((R)-2-hydroxy-2-(2-methoxyphenyl)ethyl)-5-methyl-3-((R)-1-methyl-2-oxopyrrolidin-3-yl)-6-(2H-1,2,3-triazol-2-yl)thieno[2,3-d]pyrimidine-2,4(1H,3H)-dione], the figures for the negative-log IC50 (pIC50) in assay [1] and in assay [5] were 7.00 to 8.00 and 8.70 to 9.15, respectively. For the same compound, the MIC in assay [2], in assay [3] and in assay [4] was 2.1 to 4 µg/mL (≈ 4.23 to 8.06 µM) each time.

Consider `COc1ccccc1C(=O)Cn1c(=O)n([C@H]2CCN(C)C2=O)c(=O)c2c(C)c(-n3nccn3)sc21` [Compound I-163, (S)-1-(2-(2-methoxyphenyl)-2-oxoethyl)-5-methyl-3-(1-methyl-2-oxopyrrolidin-3-yl)-6-(2H-1,2,3-triazol-2-yl)thieno[2,3-d]pyrimidine-2,4(1H,3H)-dione], for which the negative logarithm of the IC50 (pIC50) was less than 6.00 in assay [1] and 6.00 to 7.00 in assay [5]. The MIC in assay [2], in assay [3] and in assay [4] was 2.1 to 4 µg/mL (≈ 4.25 to 8.09 µM) throughout.

With `COc1ccc(F)cc1[C@H](Cn1c(=O)n([C@@H]2CCNC2=O)c(=O)c2c(C)c(-n3nccn3)sc21)O[C@H]1C[C@@H](O)C1` [Compound I-184, 1-((R)-2-(5-fluoro-2-methoxyphenyl)-2-((1s, 3S)-3-hydroxycyclobutoxy)ethyl)-5-methyl-3-((R)-2-oxopyrrolidin-3-yl)-6-(2H-1-1,2,3-triazol-2-yl)thieno[2,3-d]pyrimidine-2,4(1H,3H)-dione], the pIC50 was 8.00 to 8.70 in assay [1] and 8.70 to 9.15 in assay [5]. For the same compound, the minimal inhibitory concentration (MIC) in assay [2], in assay [3] and in assay [4] was 2.1 to 4 µg/mL (≈ 3.68 to 7.01 µM) each time.

`COc1ccc(F)cc1[C@H](Cn1c(=O)n([C@@H]2CCN(C)C2=O)c(=O)c2c(C)c(-n3nccn3)sc21)OCCC(=O)O` [Compound I-175, 3-((R)-1-(5-fluoro-2-methoxyphenyl)-2-(5-methyl-3-((R)-1-methyl-2-oxopyrrolidin-3-yl)-2,4-dioxo-6-(2H-1,2,3-triazol-2-yl)-3,4-dihydro-thieno[2,3-d]pyrimidin-1(2H)-yl)ethoxy)propanoic acid]: the pIC50 in assay [1] was 7.00 to 8.00; in assay [5], 8.70 to 9.15. The MIC in assay [2], in assay [3] and in assay [4] was 2.1 to 4 µg/mL (≈ 3.58 to 6.82 µM) in each case.

`COCCO[C@@H](Cn1c(=O)n([C@@H]2CC(=O)N(C)C2)c(=O)c2c(C)c(-n3nccn3)sc21)c1cc(F)ccc1OC` [Compound I-92, 1-((R)-2-(5-fluoro-2-methoxyphenyl)-2-(2-methoxy-ethoxy)ethyl)-5-methyl-3-((R)-1-methyl-5-oxopyrrolidin-3-yl)-6-(2H-1,2,3-triazol-2-yl)thieno[2,3-d]pyrimidine-2,4(1H,3H)-dione]: the negative-log IC50 (pIC50) in assay [1] was 7.00 to 8.00; in assay [5] it was 8.70 to 9.15. For the same compound, the MIC in assay [2], in assay [3] and in assay [4] was 2.1 to 4 µg/mL (≈ 3.67 to 6.99 µM) in each case.

Turning to `COc1ccc(F)cc1[C@H](Cn1c(=O)n([C@H]2CCCNC2=O)c(=O)c2c(C)c(-n3nccn3)sc21)O[C@H]1CC[C@@H](O)CC1` [Compound I-173, 1-((R)-2-(S-fluoro-2-methoxyphenyl)-2-(((1s, 4S)-4-hydroxycyclohexyl)oxy)ethyl)-5-methyl-3-((S)-2-oxopiperidin-3-yl)-6-(2H-1,2,3-triazol-2-yl)thieno[2,3-d]pyrimidine-2,4(1H, 3H)-dione], the pIC50 in assay [1] was 8.00 to 8.70; in assay [5], 8.70 to 9.15. Moreover, the minimal inhibitory concentration (MIC) in assay [2], in assay [3] and in assay [4] was 2.1 to 4 µg/mL (≈ 3.43 to 6.53 µM) in each case.

Turning to `COc1ccc(F)cc1[C@H](Cn1c(=O)n([C@@H]2CCCN(C)C2=O)c(=O)c2c(C)c(-n3nccn3)sc21)OCCC#N` [Compound I-117, 3-((R)-1-(5-fluoro-2-methoxyphenyl)-2-(5-methyl-3-((R)-1-methyl-2-oxopiperidin-3-yl)-2,4-dioxo-6-(2H-1,2,3-triazol-2-yl)-3,4-dihydrothieno[2,3-d]pyrimidin-1(2H)-yl)ethoxy)propanenitrile], the pIC50 in assay [1] is 8.00 to 8.70; in assay [5], 8.70 to 9.15. Further, the MIC in assay [2], in assay [3] and in assay [4] was 2.1 to 4 µg/mL (≈ 3.61 to 6.88 µM) each time.

With `COCCO[C@@H](Cn1c(=O)n([C@@H]2CCN(C)C2=O)c(=O)c2c(C)c(-n3nccn3)sc21)c1cc(F)ccc1O` [Compound I-158, 1-((R)-2-(5-fluoro-2-hydroxyphenyl)-2-(2-methoxyethoxy)ethyl)-5-methyl-3-((R)-1-methyl-2-oxopyrrolidin-3-yl)-6-(2H-1,2,3-triazol-2-yl)thieno[2,3-d]pyrimidine-2,4(1H,3H)-dione], the pIC50 was 6.00 to 7.00 in assay [1] and 8.00 to 8.70 in assay [5]. Also, the minimum inhibitory concentration (MIC) in assay [2], in assay [3] and in assay [4] was 2.1 to 4 µg/mL (≈ 3.76 to 7.16 µM) each time.

The values above are taken from patent publication US20190330224A1, “ACC INHIBITORS AND USES THEREOF” (Gilead Apollo, LLC, priority 2015, published 2019).
